The numbers were not newly measured in patent publication US20240398698A1, “CONAZOLANTIFUNGAL KETOE IN SOLUTION OR SUSPENSION FOR USE IN THE HUMAN EAR” (priority 2023, published 2024), which cites them from elsewhere.

Molecules are shown by their SMILES.

Regarding `CC(=O)N1CCN(c2ccc(OCC3COC(Cn4ccnc4)(c4ccc(Cl)cc4Cl)O3)cc2)CC1` (stereo not drawn) [Ketoconazole, ketoconazole], the “solubility in acetic acid” value (acetic acid) is listed as “not soluble”. Further, the solubility in alcohol result (alcohol) was “soluble”. Further, the solubility in water result (water) is recorded as “poorly soluble”.
